Results reported in patent US11965039B2, “Compstatin analogues and their medical uses” (priority 2018, dated 2024).
Where two headings read alike, the source gives them in different places. Positions of bridges follow the written chain, without caps; N, C: chain ends. Non-standard residues stand in square brackets, D forms with d. Residues, ends and D or L forms follow the SMILES beside them. Sar = CNCC(=O)O

Test system: classical complement pathway
Experiment: In vitro haemolysis assay (inhibition of classical complement pathway)
Format: cell-based, human
Conditions: human serum, sensitized sheep red blood cells
Description: The in vitro effect of the compounds of the present invention was assessed by measuring their inhibitory effect of the classical complement pathway in a haemolysis assay. Briefly, compounds of the present invention and reference compounds were dissolved in DMSO and diluted in Tris/Casein Assay Buffer (10 mM Tris, 145 mM NaCl, 0.5 mM MgCl2, 0.15 mM CaCl2), and 0.1% W/V Casein, adjusted to pH 7.4) as 9-point serial dilutions in a 96 well plate. Sensitized sheep red blood cells (RBC) coated with rabbit anti-sheep erythrocyte antiserum (Complement Technology, Inc., TX, USA) were washed in Tris/Casein Assay Buffer. […] from each well of diluted compound was added to a 96-well plate containing 50 μL diluted human serum (Complement Technology, Inc., TX, USA) and incubated for 15 minutes at room temperature. The serum dilution factor was optimized for every serum batch to obtain 70-90% of maximal haemolysis using the protocol. Then 50 μL sensitized sheep red blood cells were added to all wells (10^7 per well). After 30 minutes of incubation at 37 QC with gentle agitation, the reaction was stopped by addition of 50 μL Tris STOP Buffer per well (10 mM EDTA, 10 mM Tris, 145 mM NaCl adjusted to pH 7.4). The RBCs were then removed by centrifugation and the resulting supernatant measured for hemolysis by absorbance at 405 nm. The response was normalized relative to a positive and negative control (vehicle) to calculate the IC50 from the concentration response curve using the 4-parameter logistic (4PL) nonlinear model for curve fitting.

[1] = Table 3, given as upper bounds, read-out: IC50, inhibition of hemolysis
[2] = Table 4, valine 3 vs isoleucine 3 pairs, read-out: CP hemolysis IC50

SMILES | IC50 [1] | IC50 [2]
CC[C@H](C)[C@H](NC(C)=O)C(=O)N[C@H]1CSSC[C@@H](C(=O)N[C@H](C(N)=O)[C@@H](C)O)NC(=O)[C@H](CCCNC(=N)N)NC(=O)[C@H](Cc2c[nH]cn2)NC(=O)[C@H](CCCCN)NC(=O)CNC(=O)[C@H](Cc2c[nH]c3ccccc23)NC(=O)[C@H](CC(=O)O)NC(=O)[C@H](CCC(N)=O)NC(=O)[C@H](Cc2c[nH]c3ccccc23)NC(=O)[C@H]([C@@H](C)CC)NC1=O [Compound 5] (Ac-ICIWQDWGKHRCT-NH2; disulfide 2-12) | < 250 nM | –
CC[C@H](C)[C@H](NC(C)=O)C(=O)N[C@H]1CSSC[C@@H](C(=O)N[C@H](C(N)=O)[C@@H](C)O)NC(=O)[C@H](CCCNC(=N)N)NC(=O)[C@H](Cc2c[nH]cn2)NC(=O)[C@H](CO)NC(=O)CNC(=O)[C@H](Cc2c[nH]c3ccccc23)NC(=O)[C@H](CC(=O)O)NC(=O)[C@H](CCC(N)=O)NC(=O)[C@H](Cc2c[nH]c3ccccc23)NC(=O)[C@H]([C@@H](C)CC)NC1=O [Compound 6] (Ac-ICIWQDWGSHRCT-NH2; disulfide 2-12) | < 250 nM | 140 nM
CC[C@H](C)[C@H](NC(C)=O)C(=O)N[C@H]1CSSC[C@@H](C(=O)N[C@H](C(N)=O)[C@@H](C)O)NC(=O)[C@H](CCCNC(=N)N)NC(=O)[C@H](Cc2c[nH]cn2)NC(=O)[C@H](CCC(=O)O)NC(=O)CNC(=O)[C@H](Cc2c[nH]c3ccccc23)NC(=O)[C@H](CCCCN)NC(=O)[C@H](CCC(N)=O)NC(=O)[C@H](Cc2c[nH]c3ccccc23)NC(=O)[C@H]([C@@H](C)CC)NC1=O [Compound 7] (Ac-ICIWQKWGEHRCT-NH2; disulfide 2-12) | < 1000 nM | –
CC[C@H](C)[C@H](NC(C)=O)C(=O)N[C@H]1CSSC[C@@H](C(=O)N[C@H](C(=O)NCC(=O)N[C@@H](C)C(=O)N[C@@H](CCC(=O)O)C(=O)N[C@@H](CO)C(N)=O)[C@@H](C)O)NC(=O)[C@H](CCCNC(=N)N)NC(=O)[C@H](Cc2c[nH]cn2)NC(=O)[C@H](C)NC(=O)CNC(=O)[C@H](Cc2c[nH]c3ccccc23)NC(=O)[C@H](CCCCN)NC(=O)[C@H](CCC(N)=O)NC(=O)[C@H](Cc2c[nH]c3ccccc23)NC(=O)[C@H]([C@@H](C)CC)NC1=O [Compound 8] (Ac-ICIWQKWGAHRCTGAES-NH2; disulfide 2-12) | < 500 nM | –
CC[C@H](C)[C@@H]1NC(=O)[C@@H](NC(=O)[C@H](Cc2ccc(O)cc2)NC(C)=O)CSSC[C@@H](C(=O)N[C@H](C(N)=O)[C@@H](C)O)NC(=O)[C@H](CCCNC(=N)N)NC(=O)[C@H](Cc2c[nH]cn2)NC(=O)[C@H](CCC(=O)O)NC(=O)CNC(=O)[C@H](Cc2c[nH]c3ccccc23)NC(=O)[C@H](CC(=O)O)NC(=O)[C@H](CCC(N)=O)NC(=O)[C@H](Cc2c[nH]c3ccccc23)NC1=O [Compound 9] (Ac-YCIWQDWGEHRCT-NH2; disulfide 2-12) | < 100 nM | –
CC[C@H](C)[C@@H]1NC(=O)[C@@H](NC(=O)[C@H](Cc2ccc(O)cc2)NC(=O)[C@H](C)NC(=O)[C@H](CO)NC(=O)[C@H](CO)NC(=O)[C@H](CCC(=O)O)NC(C)=O)CSSC[C@@H](C(=O)N[C@H](C(N)=O)[C@@H](C)O)NC(=O)[C@H](CCCNC(=N)N)NC(=O)[C@H](Cc2c[nH]cn2)NC(=O)[C@H](CCC(=O)O)NC(=O)CNC(=O)[C@H](Cc2c[nH]c3ccccc23)NC(=O)[C@H](CC(=O)O)NC(=O)[C@H](CCC(N)=O)NC(=O)[C@H](Cc2c[nH]c3ccccc23)NC1=O [Compound 10] (Ac-ESSAYCIWQDWGEHRCT-NH2; disulfide 6-16) | < 100 nM | –
CC[C@H](C)[C@@H]1NC(=O)[C@@H](NC(=O)CN(C)C(C)=O)CSSC[C@@H](C(=O)N[C@H](C(N)=O)[C@@H](C)O)NC(=O)[C@H](CCCNC(=N)N)NC(=O)[C@H](Cc2c[nH]cn2)NC(=O)[C@H](CCC(=O)O)NC(=O)CNC(=O)[C@H](Cc2c[nH]c3ccccc23)NC(=O)[C@H](CC(=O)O)NC(=O)[C@H](CCC(N)=O)NC(=O)[C@H](Cc2c[nH]c3ccccc23)NC1=O [Compound 11] (Ac-[Sar]CIWQDWGEHRCT-NH2; disulfide 2-12) | < 100 nM | –
CC[C@H](C)[C@H](NC(C)=O)C(=O)N[C@H]1CSSC[C@@H](C(=O)N[C@@H](CCC(=O)O)C(N)=O)NC(=O)[C@H](CCCNC(=N)N)NC(=O)[C@H](Cc2c[nH]cn2)NC(=O)[C@H](C)NC(=O)CNC(=O)[C@H](Cc2c[nH]c3ccccc23)NC(=O)[C@H](CC(=O)O)NC(=O)[C@H](CCC(N)=O)NC(=O)[C@H](Cc2c[nH]c3ccccc23)NC(=O)[C@H]([C@@H](C)CC)NC1=O [Compound 12] (Ac-ICIWQDWGAHRCE-NH2; disulfide 2-12) | < 100 nM | –
CC[C@H](C)[C@H](NC(C)=O)C(=O)N[C@H]1CSSC[C@@H](C(=O)N(C)CC(N)=O)NC(=O)[C@H](CCCNC(=N)N)NC(=O)[C@H](Cc2c[nH]cn2)NC(=O)[C@H](CCC(=O)O)NC(=O)CNC(=O)[C@H](Cc2c[nH]c3ccccc23)NC(=O)[C@H](CC(=O)O)NC(=O)[C@H](CCC(N)=O)NC(=O)[C@H](Cc2c[nH]c3ccccc23)NC(=O)[C@H]([C@@H](C)CC)NC1=O [Compound 13] (Ac-ICIWQDWGEHRC[Sar]-NH2; disulfide 2-12) | < 100 nM | –
CC[C@H](C)[C@H](NC(C)=O)C(=O)N[C@H]1CSSC[C@@H](C(=O)N[C@H](C(N)=O)[C@@H](C)O)NC(=O)[C@H](CCCNC(=N)N)NC(=O)[C@H](Cc2c[nH]cn2)NC(=O)[C@H](CCC(=O)O)NC(=O)CNC(=O)[C@H](Cc2c[nH]c3ccccc23)NC(=O)[C@H](CCC(=O)O)NC(=O)[C@H](CCC(N)=O)NC(=O)[C@H](Cc2c[nH]c3ccccc23)NC(=O)[C@H]([C@@H](C)CC)NC1=O [Compound 16] (Ac-ICIWQEWGEHRCT-NH2; disulfide 2-12) | < 100 nM | –
CC[C@H](C)[C@H](NC(C)=O)C(=O)N[C@H]1CSSC[C@@H](C(=O)N[C@H](C(N)=O)[C@@H](C)O)NC(=O)[C@H](CCCNC(=N)N)NC(=O)[C@H](Cc2c[nH]cn2)NC(=O)[C@H](CC(=O)O)NC(=O)CNC(=O)[C@H](Cc2c[nH]c3ccccc23)NC(=O)[C@H](CC(=O)O)NC(=O)[C@H](CCC(N)=O)NC(=O)[C@H](Cc2c[nH]c3ccccc23)NC(=O)[C@H]([C@@H](C)CC)NC1=O [Compound 17] (Ac-ICIWQDWGDHRCT-NH2; disulfide 2-12) | < 100 nM | –
CC[C@H](C)[C@H](NC(C)=O)C(=O)N[C@H]1CSSC[C@@H](C(=O)N[C@H](C(N)=O)[C@@H](C)O)NC(=O)[C@H](CCCNC(=N)N)NC(=O)[C@H](Cc2c[nH]cn2)NC(=O)[C@H](CCCNC(=N)N)NC(=O)CNC(=O)[C@H](Cc2c[nH]c3ccccc23)NC(=O)[C@H](CC(=O)O)NC(=O)[C@H](CCC(N)=O)NC(=O)[C@H](Cc2c[nH]c3ccccc23)NC(=O)[C@H]([C@@H](C)CC)NC1=O [Compound 18] (Ac-ICIWQDWGRHRCT-NH2; disulfide 2-12) | < 100 nM | –
CC[C@H](C)[C@H](NC(C)=O)C(=O)N[C@H]1CSSC[C@@H](C(=O)N[C@H](C(N)=O)[C@@H](C)O)NC(=O)[C@H](CO)NC(=O)[C@H](Cc2c[nH]cn2)NC(=O)[C@H](C)NC(=O)CNC(=O)[C@H](Cc2c[nH]c3ccccc23)NC(=O)[C@H](CC(=O)O)NC(=O)[C@H](CCC(N)=O)NC(=O)[C@H](Cc2c[nH]c3ccccc23)NC(=O)[C@H]([C@@H](C)CC)NC1=O [Compound 19] (Ac-ICIWQDWGAHSCT-NH2; disulfide 2-12) | < 250 nM | 140 nM
CC[C@H](C)[C@H](NC(C)=O)C(=O)N[C@H]1CSSC[C@@H](C(=O)N[C@H](C(N)=O)[C@@H](C)O)NC(=O)[C@H](CO)NC(=O)[C@H](Cc2c[nH]cn2)NC(=O)[C@H](CCC(=O)O)NC(=O)CNC(=O)[C@H](Cc2c[nH]c3ccccc23)NC(=O)[C@H](CC(=O)O)NC(=O)[C@H](CCC(N)=O)NC(=O)[C@H](Cc2c[nH]c3ccccc23)NC(=O)[C@H]([C@@H](C)CC)NC1=O [Compound 20] (Ac-ICIWQDWGEHSCT-NH2; disulfide 2-12) | < 100 nM | 59 nM
CC[C@H](C)[C@H](NC(C)=O)C(=O)N[C@H]1CSSC[C@@H](C(=O)N[C@@H](CO)C(N)=O)NC(=O)[C@H](CCCNC(=N)N)NC(=O)[C@H](Cc2c[nH]cn2)NC(=O)[C@H](CCC(=O)O)NC(=O)CNC(=O)[C@H](Cc2c[nH]c3ccccc23)NC(=O)[C@H](CC(=O)O)NC(=O)[C@H](CCC(N)=O)NC(=O)[C@H](Cc2c[nH]c3ccccc23)NC(=O)[C@H]([C@@H](C)CC)NC1=O [Compound 21] (Ac-ICIWQDWGEHRCS-NH2; disulfide 2-12) | < 100 nM | 77 nM
CC[C@H](C)[C@@H]1NC(=O)[C@@H](NC(=O)[C@H](Cc2ccccc2)NC(C)=O)CSSC[C@@H](C(=O)N[C@H](C(N)=O)[C@@H](C)O)NC(=O)[C@H](CCCNC(=N)N)NC(=O)[C@H](Cc2c[nH]cn2)NC(=O)[C@H](CCC(=O)O)NC(=O)CNC(=O)[C@H](Cc2c[nH]c3ccccc23)NC(=O)[C@H](CC(=O)O)NC(=O)[C@H](CCC(N)=O)NC(=O)[C@H](Cc2c[nH]c3ccccc23)NC1=O [Compound 23] (Ac-FCIWQDWGEHRCT-NH2; disulfide 2-12) | < 100 nM | –
